# Measurements published in US10662164B2, “Non-beta lactam antibiotics” (University of Notre Dame du Lac, priority 2014, dated 2020).
# Read-outs that look alike come from different tables or passages of the source.
# Columns and labels:
# E. faecium NCTC 7171 = test: MIC determination; type: cell-based, Enterococcus faecium; conditions: for MIC: Enterococcus faecium
# S. aureus ATCC 29213 = test: MIC determination; type: cell-based, Staphylococcus aureus; conditions: for antibacterial activity in words (SAR, ring A derivatives): S. aureus ATCC 29213, compounds of Schemes 3-4; for MIC: Staphylococcus aureus
# [1] = NCTC7171, Table 3.1, compounds of Schemes 2-4, read-out: E. faecium NCTC 7171 MIC
# [2] = ATCC29213, Table 3.1 and SAR text, compounds of Schemes 2-4, read-out: S. aureus ATCC 29213 MIC
# [3] = Table 3.1, compounds of Schemes 2-4
SMILES,MIC (E. faecium NCTC 7171; [1]),"antibacterial activity in words (SAR, ring A derivatives) (S. aureus ATCC 29213)",MIC (S. aureus ATCC 29213; [2]),other results
Oc1cc(-c2nc(-c3ccc(Oc4ccccc4)cc3)no2)ccc1I [Compound 96a],32 µg/mL,failed to show significant activity,> 128 µg/mL,–
Oc1ccccc1-c1nc(-c2ccc(Oc3ccccc3)cc2)no1 [Compound 97a],> 128 µg/mL,failed to show significant activity,> 128 µg/mL,–
Nc1ccc(-c2nc(-c3ccc(Oc4ccccc4)cc3)no2)c(O)c1 [Compound 98a],> 128 µg/mL,–,> 128 µg/mL,–
COc1ccc(-c2nc(-c3ccc(Oc4ccccc4)cc3)no2)cc1[N+](=O)[O-] [Compound 99a],128 µg/mL,–,> 128 µg/mL,–
COc1ccc(-c2nc(-c3ccc(Oc4ccc(C(F)(F)F)cc4)cc3)no2)cc1[N+](=O)[O-] [Compound 99b],> 128 µg/mL,–,> 128 µg/mL,–
COc1ccc(-c2nc(-c3ccc(Oc4ccc(F)cc4)cc3)no2)cc1[N+](=O)[O-] [Compound 99c],> 128 µg/mL,–,> 128 µg/mL,–
COc1ccc(-c2nc(-c3ccc(Oc4ccccc4)cc3)no2)cc1N [Compound 100a],> 128 µg/mL,–,> 128 µg/mL,–
COc1ccc(-c2nc(-c3ccc(Oc4ccc(C(F)(F)F)cc4)cc3)no2)cc1OC [Compound 101b],> 128 µg/mL,–,> 128 µg/mL,–
COc1ccc(-c2nc(-c3ccc(Oc4ccc(F)cc4)cc3)no2)cc1OC [Compound 101c],> 128 µg/mL,–,> 128 µg/mL,–
FC(F)(F)c1ccc(Oc2ccc(-c3noc(-c4cc[nH]n4)n3)cc2)cc1 [Compound 102b],64 µg/mL,–,> 128 µg/mL,–
Fc1ccc(Oc2ccc(-c3noc(-c4cc[nH]n4)n3)cc2)cc1 [Compound 102c],32 µg/mL,–,> 128 µg/mL,–
"C[Si](C)(C)C#Cc1c[nH]nc1-c1nc(-c2ccc(Oc3ccc(C(F)(F)F)cc3)cc2)no1 [Compound 103b, 3-(4-(4-Trifluoromethyl)phenoxy)phenyl)-5-(4-((trimethylsilyl)ethynyl-1H-pyrazol-3-yl)-1,2,4-oxadiazole]",–,–,–,E. faecium NCTC 7171 MIC (E. faecium NCTC 7171; [3]): >128 µg/mL; S. aureus ATCC 29213 MIC (S. aureus ATCC 29213; [3]): >128 µg/mL
CCCCNc1c[nH]nc1-c1nc(-c2ccc(Oc3ccc(C(F)(F)F)cc3)cc2)no1 [Compound 104b],> 128 µg/mL,did not extend,> 128 µg/mL,–
CCC(C)Nc1c[nH]nc1-c1nc(-c2ccc(Oc3ccc(C(F)(F)F)cc3)cc2)no1 (stereo not drawn) [Compound 105b],128 µg/mL,did not extend,> 128 µg/mL,–
FC(F)(F)c1ccc(Oc2ccc(-c3noc(-c4n[nH]cc4NC4CCCCC4)n3)cc2)cc1 [Compound 106b],128 µg/mL,did not extend,> 128 µg/mL,–
FC(F)(F)c1ccc(Oc2ccc(-c3noc(-c4n[nH]cc4NC4CCCC4)n3)cc2)cc1 [Compound 107b],> 128 µg/mL,did not extend,> 128 µg/mL,–
CC(C)(C)OC(=O)N1CCC(Nc2c[nH]nc2-c2nc(-c3ccc(Oc4ccc(C(F)(F)F)cc4)cc3)no2)CC1 [Compound 110b],> 128 µg/mL,–,> 128 µg/mL,–
CCOP(=O)(OCC)c1c[nH]nc1-c1nc(-c2ccc(Oc3ccc(C(F)(F)F)cc3)cc2)no1 [Compound 111b],–,–,–,"MIC (E. faecium NCTC 7171; NCTC7171, read-out: E. faecium NCTC 7171 MIC): > 128 µg/mL; MIC (S. aureus ATCC 29213; ATCC29213, read-out: S. aureus ATCC 29213 MIC): > 128 µg/mL"
Oc1nc(-c2ccc(Oc3ccccc3)cc2)no1 [Compound 112a],> 128 µg/mL,abolishes activity,> 128 µg/mL,–
c1ccc(Oc2ccc(-c3noc(-c4ccncc4)n3)cc2)cc1 [Compound 114a],64 µg/mL,No activity,> 128 µg/mL,–

SMILES,MIC (E. faecium NCTC 7171; [1]),"antibacterial activity in words (SAR, ring A derivatives) (S. aureus ATCC 29213)",MIC (S. aureus ATCC 29213; [2]),other results
[O-][n+]1ccc(-c2nc(-c3ccc(Oc4ccccc4)cc3)no2)cc1 [Compound 115a],64 µg/mL,No activity,> 128 µg/mL,–
FC(F)(F)c1ccc(Oc2ccc(-c3noc(-c4nc[nH]n4)n3)cc2)cc1 [Compound 116b],> 128 µg/mL,No activity,> 128 µg/mL,–
FC(F)(F)c1ccc(Oc2ccc(-c3noc(-c4cnn[nH]4)n3)cc2)cc1 [Compound 117b],> 128 µg/mL,No activity,16 µg/mL,–
CC(C)c1cc(-c2nc(-c3ccc(Oc4ccc(F)cc4)cc3)no2)[nH]n1 [Compound 119c],64 µg/mL,No activity,> 128 µg/mL,–
Oc1ccc(-c2nc(-c3ccc(Oc4ccc(C(F)(F)F)cc4)cc3)no2)cn1 [Compound 120b],32 µg/mL,–,> 128 µg/mL,–
Oc1ccc(-c2nc(-c3ccc(Oc4ccc(F)cc4)cc3)no2)cn1 [Compound 120c],64 µg/mL,–,> 128 µg/mL,–
Nc1cc(-c2nc(-c3ccc(Oc4ccc(C(F)(F)F)cc4)cc3)no2)cnc1O [Compound 121b],64 µg/mL,–,> 128 µg/mL,–
Nc1cc(-c2nc(-c3ccc(Oc4ccc(F)cc4)cc3)no2)cnc1O [Compound 121c],128 µg/mL,–,> 128 µg/mL,–
Nc1cncc(-c2nc(-c3ccc(Oc4ccc(C(F)(F)F)cc4)cc3)no2)c1 [Compound 122b],> 128 µg/mL,–,> 128 µg/mL,–
Nc1cncc(-c2nc(-c3ccc(Oc4ccc(F)cc4)cc3)no2)c1 [Compound 122c],128 µg/mL,–,> 128 µg/mL,–
FC(F)(F)c1ccc(Oc2ccc(-c3noc(-c4n[nH]c5ccccc45)n3)cc2)cc1 [Compound 123b],> 128 µg/mL,–,> 128 µg/mL,–
Fc1ccc(Oc2ccc(-c3noc(-c4n[nH]c5ccccc45)n3)cc2)cc1 [Compound 123c],16 µg/mL,–,> 128 µg/mL,–
c1ccc(Oc2ccc(-c3noc(-c4ccc5[nH]ncc5c4)n3)cc2)cc1 [Compound 124a],64 µg/mL,No activity,> 128 µg/mL,–
FC(F)(F)c1ccc(Oc2ccc(-c3noc(-c4c[nH]c5ncccc45)n3)cc2)cc1 [Compound 125b],32 µg/mL,–,> 128 µg/mL,–
Fc1ccc(Oc2ccc(-c3noc(-c4c[nH]c5ncccc45)n3)cc2)cc1 [Compound 125c],64 µg/mL,–,> 128 µg/mL,–
Nc1c[nH]c(-c2nc(-c3ccc(Oc4ccc(F)cc4)cc3)no2)c1 [Compound 126c],64 µg/mL,No activity,128 µg/mL,–
Fc1ccc(Oc2ccc(-c3noc(-c4cc[nH]c4)n3)cc2)cc1 [Compound 127c],> 128 µg/mL,No activity,> 128 µg/mL,–
c1ccc(Oc2ccc(-c3noc(C4CCOCC4)n3)cc2)cc1 [Compound 131a],> 128 µg/mL,–,> 128 µg/mL,–
NCCCCc1nc(-c2ccc(Oc3ccccc3)cc2)no1 [Compound 137a],32 µg/mL,–,≥ 32 µg/mL,–
